Test results from ChEMBL document CHEMBL1152348, “Discovery of 3-aryl-5-aryl-1,2,4-oxadiazoles as a new series of apoptosis inducers. 2. Identification of more aqueous soluble analogs as potential anticancer agents” (Bioorg Med Chem Lett, 2009).
≈ marks a conversion by molar mass, not a printed value. Calls of active or inactive are those of the source. No cut-off for these calls is given here.

Legend:
[1] = test system: T47D; assay: Induction of apoptosis in human T47D cells assessed as caspase activation after 48 hrs; type: functional, cell-based
[2] = test system: DLD-1; assay: Induction of apoptosis in human DLD1 cells assessed as caspase activation after 48 hrs; type: functional, cell-based; settings: DLD-1, 48 h
[3] = test system: NCI-H1299; assay: Induction of apoptosis in human H1299 cells assessed as caspase activation after 48 hrs; type: functional, cell-based; settings: NCI-H1299, 48 h
[4] = test system: MX1; assay: Antitumor activity against human MX1 cells xenografted in Crl:Nu/Nu-nuBR mouse assessed as inhibition of tumor growth at 20 mg/kg, iv daily once for day 1 to 5 and 8 to 12; type: functional, organism-based; parameters: dose 20 mg/kg
[5] = Solubility in DMSO/ethanol/cremophor EL/D5W solution; type: physicochemical
[6] = Growth inhibition of human H1299 cells after 48 hrs; type: functional; settings: NCI-H1299, 48 h
[7] = test system: T47D; assay: Growth inhibition of human T47D cells after 48 hrs; type: functional
[8] = test system: Mus musculus; assay: Toxicity in Crl:Nu/Nu-nuBR mouse assessed as decrease of body weight at 20 mg/kg, iv daily once for day 1 to 5 and 8 to 12; type: organism-based; parameters: dose 20 mg/kg, route intravenous; scale not given: the % may be the effect or the level left; settings: in vivo
[9] = Aqueous solubility in dextrose 5% in water; type: physicochemical
[10] = Solubility in ethanol/cremophor EL/D5W solution; type: physicochemical

Compound | EC50 [1] | EC50 [2] | EC50 [3] | GI50 [7] | GI50 [6] | other results
COc1cc2c(c(OC)c1OC)-c1ccc(OC)c(=O)cc1[C@@H](NC(C)=O)CC2 [COLCHICINE] | – | 180 nM | – | 140 nM | 0.063 µM | –
O=P([O-])([O-])OCc1cc(Cl)ccc1-c1noc(-c2occc2Br)n1.[Na+].[Na+] | – | – | – | – | – | solubility [9]: 10000 µg/mL
Nc1cc(-c2noc(-c3sccc3Cl)n2)ccc1Cl | 2400 nM | 580 nM | > 10 µM | – | – | –
Cc1cc(Cl)cnc1-c1noc(-c2occc2Br)n1 | 940 nM | 1200 nM | > 10 µM | 660 nM | > 10 µM | solubility [10]: 3800 µg/mL (≈ 11.2 mM)
O=P(O)(O)OCc1cc(Cl)ccc1-c1noc(-c2occc2Br)n1 | > 10000 nM | – | > 10 µM | – | – | –
CN(C)c1cc(-c2noc(-c3sccc3Cl)n2)ccc1Cl | 2100 nM | 540 nM | > 10 µM | – | – | –
OCc1cc(Cl)ccc1-c1noc(-c2occc2Br)n1 | 2900 nM | – | > 10 µM | 500 nM | > 10 µM | solubility [10]: 4000 µg/mL (≈ 11.2 mM)

Second part, led by results:

EC50 [1] | EC50 [2] | EC50 [3] | GI50 [7] | Compound | GI50 [6] | other results
1400 nM | 370 nM | > 10 µM | – | Clc1ccc(-c2noc(-c3sccc3Cl)n2)cc1Cl | – | –
1700 nM | 590 nM | > 10 µM | – | Cc1cc(-c2noc(-c3sccc3Cl)n2)ccc1Cl | – | –
1100 nM | 710 nM | > 10 µM | 130 nM | Cc1cc(Cl)ccc1-c1noc(-c2occc2Br)n1 | > 10 µM | inhibition [4]: Active; solubility [5]: 4800 µg/mL (≈ 14.1 mM); Activity [8]: < 10%
3100 nM | 1100 nM | > 10 µM | – | Nc1cc(Cl)ccc1-c1noc(-c2sccc2Cl)n1 | – | –
> 10000 nM | > 10000 nM | > 10 µM | – | CN(C)CCNc1cc(-c2noc(-c3sccc3Cl)n2)ccc1Cl | – | –
– | 54 nM | 0.098 µM | 26 nM | CC(=O)O[C@H]1C(=O)[C@@]2(C)[C@H]([C@H](OC(=O)c3ccccc3)[C@]3(O)C[C@H](OC(=O)[C@H](O)[C@@H](NC(=O)c4ccccc4)c4ccccc4)C(C)=C1C3(C)C)[C@]1(OC(C)=O)CO[C@@H]1C[C@@H]2O [PACLITAXEL] | 0.023 µM | –
2200 nM | – | 2.3 µM | – | Clc1ccc(-c2noc(-c3occc3Br)n2)c(CBr)c1 | – | –
910 nM | 380 nM | > 10 µM | – | Cc1cc(Cl)ccc1-c1noc(-c2sccc2Cl)n1 | – | –
1200 nM | 440 nM | > 10 µM | 190 nM | Clc1ccc(-c2noc(-c3sccc3Cl)n2)cc1 | > 10 µM | –
– | 160 nM | 0.082 µM | – | CC[C@]1(O)C[C@@H]2CN(CCc3c([nH]c4ccccc34)[C@@](C(=O)OC)(c3cc4c(cc3OC)N(C)[C@H]3[C@@](O)(C(=O)OC)[C@H](OC(C)=O)[C@]5(CC)C=CCN6CC[C@]43[C@@H]65)C2)C1 [VINBLASTINE] | – | –
4500 nM | 1100 nM | 8.6 µM | – | Clc1ccc(-c2noc(-c3sccc3Cl)n2)c(CBr)c1 | – | –
